PubChem BioAssay (NCI)
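Results reflect a 48-hour exposure of cells in 96-well plates to compound at five concentrations. At the TGI there is no net growth.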

Tests used:
Assay in all cases: growth of human tumour cells (NCI), 48 h
[1] = test system: RXF 393 renal
[2] = test system: MALME-3M melanoma
[3] = test system: OVCAR-4 ovarian
[4] = test system: HOP-62 NSCLC
[5] = test system: U251 CNS
[6] = test system: SK-OV-3 ovarian
[7] = test system: UACC-257 melanoma
[8] = test system: OVCAR-8 ovarian
[9] = test system: M14 melanoma
[10] = test system: NCI/ADR-RES ovarian
[11] = test system: KM12 colon
[12] = test system: LOX IMVI melanoma
[13] = test system: SNB-19 CNS
[14] = test system: NCI-H460 lung
[15] = test system: COLO 205 colon
[16] = test system: PC-3 prostate
[17] = test system: HCT-15 colon
[18] = test system: SK-MEL-28 melanoma
[19] = test system: A549 NSCLC
[20] = test system: NCI-H23 lung
[21] = test system: CAKI-1 renal
[22] = test system: SR leukemia
[23] = test system: SK-MEL-5 melanoma
[24] = test system: ACHN renal
[25] = test system: MOLT-4 leukemia
[26] = test system: HCC-2998 colon
[27] = test system: HOP-92 NSCLC
[28] = test system: RPMI-8226 leukemia
[29] = test system: NCI-H522 lung
[30] = test system: T-47D breast
[31] = test system: SF-539 CNS
[32] = test system: HL-60(TB) leukemia
[33] = test system: HCT-116 colon
[34] = test system: SF-295 CNS
[35] = test system: SK-MEL-2 melanoma
[36] = test system: MDA-MB-231 breast
[37] = test system: MDA-N
[38] = test system: SNB-75 CNS
[39] = test system: HS 578T breast
[40] = test system: MCF7 breast
[41] = test system: HT29 colon
[42] = test system: MDA-MB-435
[43] = test system: 786-0 renal
[44] = test system: OVCAR-5 ovarian
[45] = test system: SN12C renal
[46] = test system: BT-549 breast
[47] = test system: SW-620 colon
[48] = test system: TK-10 renal
[49] = test system: EKVX NSCLC
[50] = test system: SF-268 CNS
[51] = test system: UACC-62 melanoma
[52] = test system: NCI-H226 lung
[53] = test system: K-562 leukemia
[54] = test system: IGROV1 ovarian
[55] = test system: DU-145 prostate
[56] = test system: A498 renal
[57] = test system: CCRF-CEM leukemia
[58] = test system: UO-31 renal
[59] = test system: OVCAR-3 ovarian

## CCN(CC)c1nc(N(C)C)c2ccc(OC)cc2n1
[1]
  TGI: 34.7 µM
[2]
  TGI: 55.1 µM
[3]
  TGI: > 100 µM
[4]
  TGI: 76.7 µM
[5]
  TGI: 71.8 µM
[6]
  TGI: 52.5 µM
[7]
  TGI: 28.1 µM
[8]
  TGI: > 100 µM
[9]
  TGI: 22.2 µM
[10]
  TGI: 69.1 µM
[11]
  TGI: 48.2 µM
[12]
  TGI: 42.3 µM
[13]
  TGI: 70 µM
[14]
  TGI: 26.5 µM
[15]
  TGI: 21.6 µM
[16]
  TGI: 54.8 µM
[17]
  TGI: > 100 µM
[18]
  TGI: 32.4 µM
[19]
  TGI: > 100 µM
[20]
  TGI: > 100 µM
[21]
  TGI: > 100 µM
[22]
  TGI: 31.4 µM
[23]
  TGI: 24.7 µM
[24]
  TGI: 59.6 µM
[25]
  TGI: 22.1 µM
[26]
  TGI: 26.9 µM
[27]
  TGI: > 100 µM
[28]
  TGI: 31 µM
[29]
  TGI: 30.3 µM
[30]
  TGI: 73.6 µM
[31]
  TGI: 49.6 µM
[32]
  TGI: 17.2 µM
[33]
  TGI: 20.1 µM
[34]
  TGI: > 100 µM
[35]
  TGI: 36.5 µM
[36]
  TGI: 75.8 µM
[37]
  TGI: 22 µM
[38]
  TGI: 66.6 µM
[39]
  TGI: > 100 µM
[40]
  TGI: 25 µM
[41]
  TGI: 26.1 µM
[42]
  TGI: 24.6 µM
[43]
  TGI: 89.3 µM
[44]
  TGI: > 100 µM
[45]
  TGI: 48.7 µM
[46]
  TGI: 64.8 µM
[47]
  TGI: 50 µM
[48]
  TGI: > 100 µM
[49]
  TGI: 21.8 µM
[50]
  TGI: > 100 µM
[51]
  TGI: 24.8 µM
[52]
  TGI: 55.2 µM
[53]
  TGI: 66.6 µM
[54]
  TGI: > 100 µM

## COc1ccccc1-c1nc2ccccc2c(=O)[nH]1
[1]
  TGI: > 100 µM
[2]
  TGI: > 100 µM
[3]
  TGI: > 100 µM
[4]
  TGI: > 100 µM
[5]
  TGI: > 100 µM
[6]
  TGI: > 100 µM
[7]
  TGI: > 100 µM
[8]
  TGI: > 100 µM
[9]
  TGI: > 100 µM
[10]
  TGI: > 100 µM
[11]
  TGI: > 100 µM
[13]
  TGI: > 100 µM
[14]
  TGI: > 100 µM
[15]
  TGI: > 100 µM
[16]
  TGI: > 100 µM
[17]
  TGI: > 100 µM
[19]
  TGI: > 100 µM
[20]
  TGI: > 100 µM
[21]
  TGI: > 100 µM
[22]
  TGI: > 100 µM
[23]
  TGI: > 100 µM
[24]
  TGI: > 100 µM
[25]
  TGI: > 100 µM
[26]
  TGI: > 100 µM
[28]
  TGI: > 100 µM
[55]
  TGI: > 100 µM
[30]
  TGI: > 100 µM
[33]
  TGI: > 100 µM
[56]
  TGI: > 100 µM
[34]
  TGI: > 100 µM
[35]
  TGI: > 100 µM
[36]
  TGI: > 100 µM
[57]
  TGI: > 100 µM
[37]
  TGI: > 100 µM
[38]
  TGI: > 100 µM
[39]
  TGI: > 100 µM
[40]
  TGI: > 100 µM
[42]
  TGI: > 100 µM
[43]
  TGI: > 100 µM
[44]
  TGI: > 100 µM
[45]
  TGI: > 100 µM
[46]
  TGI: > 100 µM
[47]
  TGI: > 100 µM
[58]
  TGI: > 100 µM
[49]
  TGI: > 100 µM
[59]
  TGI: > 100 µM
[50]
  TGI: > 100 µM
[51]
  TGI: > 100 µM
[52]
  TGI: > 100 µM
[54]
  TGI: > 100 µM
